Columns and labels:
Format in all cases: cell-based, human
[1] = system: Karpas-299 wt cells; assay: DNA interstrand cross-linking, single cell gel electrophoresis (comet) assay; conditions: 130 μM ADCT-301 or 280 μM SG3199 (figure legends: pM) for 2 hours, then 24 hours
Description: (§1) The formation of inter-strand cross-links (ICLs) by either ADCT-301 or SG3199 was measured using a modification of the single cell gel electrophoresis (comet) assay (Spanswick V J, Hartley J M, Hartley J A. Measurement of DNA interstrand crosslinking in individual cells using the Single Cell Gel Electrophoresis (Comet) assay. Methods Mol Biol. 613, 267-82 (2010)). Cells were treated with […] ADCT-301 or […] SG3199 for 2 hours, then washed and incubated for 24 hours under normal cell culture conditions. All cells were irradiated with 18 Gy (5 Gy/min for 3.6 min). Comet slides were reviewed under a 20× objective on an epifluorescence microscope equipped with: Hg arc lamp; 580 nm dichroic mirror; and 535 nm excitation and 645 nm emission filters suitable for visualising of propidium iodide staining with a minimum of 50 Comet images acquired per treatment condition. The Olive Tail Moment (OTM) was determined as the product of the tail length and the fraction of total DNA in the tail as recorded by Komet 6 software (Andor Technology, Belfast, UK) and the percentage reduction in OTM calculated according to the formula:
(§2) % decrease in tail moment=[1−(TMdi−TMcu)/(TMci−TMcu)]*100 • [TMdi=Tail Moment drug irradiated; TMcu=TM control un-irradiated; TMci=TM control irradiated]
(§3) The results are shown in FIG. 18 for the ADCR line and FIG. 19 for the PBDR line.

[2] = system: NCI-N87 ADCr cells (ADCT-502 acquired resistant); assay: MTS in vitro cytotoxicity, 144 h continuous exposure
Description: To generate a resistant population to either ADCT-502 or SG3199, human gastric cancer NCI-N87 cells (expressing HER2) were incubated with an approximate IC50 dose of the drug for 144 hours. The cells were then washed and returned to fresh medium until normal cell growth was recovered. This process was repeated until a measurable and stable loss in cytotoxic efficacy was established using the MTS assay.
To measure the in vitro cytotoxicity with the MTS assay, cells were incubated with a 10-fold dilution range of ADCT-502 or SG3199, and incubated with continuous exposure for 144 hours (at least three cell doubling times under normal cell culture conditions). After incubation the CellTiter 960 AQueous One Solution Cell Proliferation Assay (MTS) was used to measure growth inhibition, by adding 20 μl reagent to the cells and incubating for 3-4 hours, then reading the absorbance at 492 nm. Mean % growth of the ADC or PBD treated cells was calculated relative to an untreated control.
To measure the cross-resistance of the NCI-N87 ADCR cells to the SG3199 PBD warhead, and the PBDR cells to ADCT-502, the in vitro cytotoxicity assay was carried out as described above, treating the cells with the opposite drug molecule to the one with which they were generated.

[3] = system: Karpas PBDr cells; assay: DNA interstrand cross-linking, comet assay; conditions: 130 μM ADCT-301 or 280 μM SG3199 (figure legends: pM) for 2 hours, then 24 hours
Description: as §1, §2, §3

[4] = system: Karpas ADCr cells; assay: DNA interstrand cross-linking, comet assay; conditions: 130 μM ADCT-301 or 280 μM SG3199 (figure legends: pM) for 2 hours, then 24 hours
Description: as §1, §2, §3

COc1cc2c(cc1OCCCCCOc1cc3c(cc1OC)C(=O)N1C=C(C)C[C@H]1C=N3)N=C[C@@H]1CC(C)=CN1C2=O [SG3199]
% red. OTM (mean % reduction in Olive Tail Moment) [1]: 55.5%
fold resistance compared to wildtype ([2]; NCI-N87 ADCr vs NCI-N87 wt IC50): 3.8 fold
IC50 ([2]; NCI-N87 ADCr, 144 h continuous exposure, mean, read-out: IC50): 0.0604 nM
% red. OTM [3]: 25.7%
% red. OTM [4]: 7.2%
